{
  "source": "patent US20010056087A1",
  "about": "“Use of 5alpha-androst-1en-3,17-diol to increase the level of the anabolic/androgenic hormone 17beta-hydroxy-5alpha-androst-1-en-3-one in humans” (priority 2000, published 2001)",
  "origin": "cited, not measured here",
  "details": "One hundred mg given orally to men",
  "data": [
    {"molecule": "C[C@]12C=CC(=O)C[C@@H]1CC[C@@H]1[C@@H]2CC[C@]2(C)C(=O)CC[C@@H]12", "note": "[1-androstenedione, 5alpha-androst-1-en-3,17-dione]", "values": [
      {"measurement": "excretion of 17beta-hydroxy-5alpha-androst-1-en-3-one in the urine (in-vivo conversion)", "value": "considerable excretion of 17beta-hydroxy-5alpha-androst-1-en-3-one in the urine"}
    ]}
  ]
}
